For this assay, the target named is Ubiquitin carboxyl-terminal hydrolase 7 (Homo sapiens, UniProt Q93009). Kind of assay: Ub-AMC Enzymatic and Kinetic Assays. How it is done: Full length USP7 was tested for its activity in Ubiquitin-AMC assay in presence or absence of inhibitors. USP7 (5 nM) was pre-incubated for 6 hours at room temperature with different concentrations of inhibitors or DMSO as a control in 50 mM HEPES pH 7.5, 0.5 mM EDTA, 11 μM ovalbumin, and 5 mM DTT. Ubiquitin-AMC (Boston Biochem) was then added to a final concentration of 500 nM. The initial rate of the reaction was measured by collecting fluorescence data at one minute intervals over 30-minute period using a Clariostar fluorescence plate reader at excitation and emission wavelength of 345 and 445 nm respectively. The calculated initial rate values were plotted against inhibitor concentrations to determine IC50s. All the experimental data were plotted using Prism GraphPad. All assays for each compound were performed at least twice for each compound.

The structures appear in SMILES notation.

Chain of Ubiquitin carboxyl-terminal hydrolase 7 (Q93009 whole entry): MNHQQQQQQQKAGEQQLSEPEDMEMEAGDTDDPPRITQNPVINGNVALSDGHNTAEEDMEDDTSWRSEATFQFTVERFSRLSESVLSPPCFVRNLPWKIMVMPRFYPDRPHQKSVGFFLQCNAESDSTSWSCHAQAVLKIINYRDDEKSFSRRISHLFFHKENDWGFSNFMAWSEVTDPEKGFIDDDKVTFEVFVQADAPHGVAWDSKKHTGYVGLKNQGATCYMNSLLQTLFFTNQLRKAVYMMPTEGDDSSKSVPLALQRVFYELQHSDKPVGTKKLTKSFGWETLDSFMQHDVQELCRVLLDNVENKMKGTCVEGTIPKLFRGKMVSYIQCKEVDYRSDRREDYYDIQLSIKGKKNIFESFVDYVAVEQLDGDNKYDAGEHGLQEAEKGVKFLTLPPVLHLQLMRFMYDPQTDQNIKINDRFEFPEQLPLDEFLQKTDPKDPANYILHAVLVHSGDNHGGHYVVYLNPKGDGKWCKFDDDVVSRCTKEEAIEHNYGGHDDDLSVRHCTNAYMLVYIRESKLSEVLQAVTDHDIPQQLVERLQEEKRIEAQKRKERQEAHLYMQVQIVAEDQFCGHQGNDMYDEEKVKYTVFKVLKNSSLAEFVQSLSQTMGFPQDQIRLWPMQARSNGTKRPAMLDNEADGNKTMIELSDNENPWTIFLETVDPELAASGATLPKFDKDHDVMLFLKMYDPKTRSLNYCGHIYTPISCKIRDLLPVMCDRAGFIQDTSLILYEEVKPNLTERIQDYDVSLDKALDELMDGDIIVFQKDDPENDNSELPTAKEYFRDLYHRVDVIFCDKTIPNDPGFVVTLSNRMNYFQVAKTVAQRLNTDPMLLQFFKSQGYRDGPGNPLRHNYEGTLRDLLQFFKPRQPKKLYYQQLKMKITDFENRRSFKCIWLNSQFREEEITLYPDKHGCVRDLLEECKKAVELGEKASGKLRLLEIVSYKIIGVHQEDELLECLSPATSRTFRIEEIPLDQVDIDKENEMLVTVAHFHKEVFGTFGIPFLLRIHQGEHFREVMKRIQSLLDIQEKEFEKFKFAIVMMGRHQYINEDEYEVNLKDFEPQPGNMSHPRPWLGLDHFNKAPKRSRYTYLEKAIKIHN

The compound `CN1CCN(CCC(=O)Nc2ccc3c(=O)n(CC4(O)CCN(C(=O)C(CCCNC(=O)C5CCN(C#N)C5)Cc5ccccc5)CC4)cnc3c2)CC1` (stereo unspecified) [US12503453, Compound Table1.19] came in with an IC50 above 1000 nM.

The IC50 is the concentration at which inhibition is half-maximal. Low values mean greater potency, high ones weaker potency.

(Values after BindingDB's records for patent US12503453 (Dana-Farber Cancer Institute, 2025).)
